Laboratory results reported in patent publication US20080176898A1, “Phenyl Acetamides” (Bayer HealthCare AG, priority 2004, published 2008).

Assays:
[1] = biological target: T1, human CysLT1 receptor (Homo sapiens, UniProt Q9Y271); assay: Cellular in vitro test to determine the CysLT1 activity (aequorin luminescence, CHO K1 cells); type: cell-based; conditions: recombinant CHO K1 cells with aequorin and human CysLT1 receptor; antagonism of LTD4 (3×10^−9 M) induced calcium release; 15 minutes preincubation
T1 construct: expressed in transfected cells; host or cells: CHO K1 cells constitutively expressing aequorin
T1 sequence (Q9Y271 1-337): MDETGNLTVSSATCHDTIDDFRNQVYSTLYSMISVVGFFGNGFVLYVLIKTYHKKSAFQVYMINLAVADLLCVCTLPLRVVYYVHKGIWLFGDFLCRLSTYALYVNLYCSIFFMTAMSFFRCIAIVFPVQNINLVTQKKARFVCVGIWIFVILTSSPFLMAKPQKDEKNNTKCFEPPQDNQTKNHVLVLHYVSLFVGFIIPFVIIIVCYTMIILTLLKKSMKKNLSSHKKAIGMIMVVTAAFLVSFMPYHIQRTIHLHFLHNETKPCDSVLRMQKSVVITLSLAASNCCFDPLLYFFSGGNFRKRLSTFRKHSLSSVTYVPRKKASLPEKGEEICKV
Source text: 2. Cellular In Vitro Test to Determine the CysLT1 Activity
A recombinant cell line is used to identify antagonists of the human cysteinyl-leukotriene 1 receptor (CysLT1R) and to quantify the activity of the substances described herein. The cell is originally derived from a hamster ovary epithelial cell (Chinese Hamster Ovary, CHO K1, ATCC: American Type Culture Collection, Manassas, Va. 20108, USA). The test cell line constitutively expresses the calcium-sensitive photoprotein aequorin which, after reconstitution with the cofactor coelenterazine, emits light when the cytoplasmic calcium concentration is increased (Rizzuto R, Simpson A W, Brini M, Pozzan T.; Nature 358 (1992) 325-327). The cell is additionally stably transfected with the human CysLT1 receptor (Lynch et al., Nature 399 (1999) 789-793). The resulting CysLT1R test cell responds to stimulation of the recombinant CysLT1 receptor (agonist: leukotriene D4 (LTD4)) with an intracellular release of calcium ions, which can be quantified through the resulting aequorin luminescence with a suitable luminometer (Milligan G, Marshall F, Rees S, Trends in Pharmacological Sciences 17 (1996) 235-237). Preincubation with antagonists of the CysLT1 receptor reduces the calcium release induced by the agonist LTD4 and thus the measured amount of light.
(§1) Test procedure: The cells are plated out two days before the test in culture medium (DMEM/F12 with Glutamax, Gibco Cat. #61965-026; 10% FCS, Gibco Cat. #10270-106; 1.4 mM sodium pyruvate, Gibco Cat. #11360-039; 1.8 mM sodium bicarbonate, Gibco Cat. #25080-060; 10 mM HEPES, Gibco Cat. #15290-026; now belongs to Invitrogen GmbH, 76131 Karlsruhe) in 384- (or 1536-)well microtiter plates and kept in a cell incubator (96% humidity, 5% v/v CO2, 37° C.). On the day of the test, the culture medium is replaced by Tyrode solution (in mM: 140 NaCl, 5 KCl, 1 MgCl2, 2 CaCl2, 20 glucose, 20 HEPES) which additionally contains the cofactor coelenterazine (50 μM), and the microtiter plate is then incubated for a further 3-4 hours. 15 minutes after the test substances have been transferred into the wells of the microtiter plate, the resulting light signal is measured after addition of the LID4 (3×10^−9 M) in the luminometer.

[2] = biological target: T2, human CysLT2 receptor (Homo sapiens, UniProt Q9NS75); assay: Cellular in vitro test to determine the CysLT2 activity (aequorin luminescence, CHO K1 cells); type: cell-based; conditions: recombinant CHO K1 cells with aequorin and human CysLT2 receptor; antagonism of LTD4 (3×10^−8 M) induced calcium release; 15 minutes preincubation
T2 construct: expressed in transfected cells; host or cells: CHO K1 cells constitutively expressing aequorin
T2 sequence (Q9NS75 1-346): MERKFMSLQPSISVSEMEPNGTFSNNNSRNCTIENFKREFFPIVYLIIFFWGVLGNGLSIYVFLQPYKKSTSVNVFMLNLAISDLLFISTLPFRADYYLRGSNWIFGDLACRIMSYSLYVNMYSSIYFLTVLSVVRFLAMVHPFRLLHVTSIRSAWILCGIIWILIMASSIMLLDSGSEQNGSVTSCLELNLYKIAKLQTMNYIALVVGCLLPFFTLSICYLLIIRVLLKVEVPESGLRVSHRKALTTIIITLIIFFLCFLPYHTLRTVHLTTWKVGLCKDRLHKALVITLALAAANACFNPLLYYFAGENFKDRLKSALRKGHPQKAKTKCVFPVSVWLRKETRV
Source text: 1. Cellular In Vitro Test to Determine the CysLT2 Activity
A recombinant cell line is used to identify antagonists of the human cysteinyl-leukotriene 2 receptor (CysLT2R) and to quantify the activity of the substances described herein. The cell is originally derived from a hamster ovary epithelial cell (Chinese Hamster Ovary, CHO K1, ATCC: American Type Culture Collection, Manassas, Va. 20108, USA). The test cell line constitutively expresses the calcium-sensitive photoprotein aequorin which, after reconstitution with the cofactor coelenterazine, emits light when the cytoplasmic calcium concentration is increased (Rizzuto R, Simpson A W, Brini M, Pozzan T.; Nature 358 (1992) 325-327). The cell is additionally stably transfected with the human CysLT2 receptor (Heise et.al., JBC 275 (2000) 30531-30536). The resulting CysLT2R test cell responds to stimulation of the recombinant CysLT2 receptor (agonists: leukotriene D4 (LTD4) and leukotriene C4 (LTC4)) with an intracellular release of calcium ions, which can be quantified through the resulting aequorin luminescence with a suitable luminometer (Milligan G, Marshall F, Rees S, Trends in Pharmacological Sciences 17 (1996) 235-237). Preincubation with antagonists of the CysLT2 receptor reduces the calcium release induced by the agonists LTD4 and LTC4 and thus the measured amount of light.
as §1, with “384-(or” for “384- (or”, “[…]” for “3-4”, “LTD4 (3×10^−8” for “LID4 (3×10^−9”

| Compound | IC50 [1] | IC50 [2] |
| --- | --- | --- |
| O=C(O)CCCNC(=O)Cc1cc(C(=O)O)ccc1OCCCc1ccc(OCCCCOc2ccccc2)cc1 [Example 13, 3-{2-[(3-Carboxypropyl)amino]-2-oxoethyl}-4-{3-[4-(4-phenoxybutoxy)phenyl]propoxy}benzoic acid] | > 10000 nM | 140 nM |
| O=C(O)c1ccc(OCCCc2ccc(OCCCCOC3CCCCC3)cc2)c(CC(=O)N2CCCC(C(=O)O)C2)c1 (stereo not shown) [Example 25, 1-{[5-Carboxy-2-(3-{4-[4-(cyclohexyloxy)butoxy]phenyl}propoxy)phenyl]acetyl}piperidine-3-carboxylic acid] | > 10000 nM | 45 nM |
| O=C(O)CCCNC(=O)Cc1cc(C(=O)O)ccc1OCCCc1ccc(OCCCC2CCCCC2)cc1 [Example 31, 3-{2-[(3-Carboxypropyl)amino]-2-oxoethyl}-4-{3-[4-(3-cyclohexylpropoxy)phenyl]propoxy}-benzoic acid] | > 10000 nM | 45 nM |
| O=C(O)c1ccc(OCCCc2ccc(OCCCC3CCCCC3)cc2)c(CC(=O)N2CCC(C(=O)O)CC2)c1 [Example 33, 1-[(5-Carboxy-2-{3-[4-(3-cyclohexylpropoxy)phenyl]propoxy}phenyl)acetyl]piperidine-4-carboxylic acid] | > 3000 nM | 70 nM |
| O=C(O)CNC(=O)Cc1cc(C(=O)O)ccc1OCCCc1ccc(OCCCC2CCCCC2)cc1 [Example 45, 3-{2-[(Carboxymethyl)amino]-2-oxoethyl}-4-{3-[4-(3-cyclohexylpropoxy)phenyl]propoxy}-benzoic acid] | > 3000 nM | 75 nM |
